Reference: patent US7964723B2, “And practical process for exclusively producing (S)-9-fluoro-3-methyl-10-(4-methyl-1-piperazinyl)-7-oxo-2,3-dihydro-7H-pyrido-[1,2,3,de][1,4]benzoxazine-6-carboxylic acid hemihydrate” (Apeloa-Kangyu, priority 2008, dated 2011)
Like-named read-outs stand apart in the source and are kept apart here.

Legend:
[1] = hemihydrate compared with monohydrate; cited from earlier work
[2] = loss of crystal water on drying; format: physicochemical; conditions: 50° C. under vacuum of around 60 mm/Hg for a couple of hours; theoretical water 2.43%
Source text: Levofloxacin hemihydrate contains a theoretical amount of water of 2.43%.

[3] = cited from earlier work
[4] = test system: gram-positive and gram-negative bacteria; conditions: cited from earlier work

C[C@H]1COc2c(N3CCN(C)CC3)c(F)cc3c(=O)c(C(=O)O)cn1c23 [Levofloxacin hemihydrate, (−)-(S)-9-fluoro-3-methyl-10-(4-methyl-1-piperazinyl)-7-oxo-2,3-dihydro-7H-pyrido-[1,2,3-de] [1,4] benzoxazine-6-carboxylic acid hemihydrate]
phase stability as a drug substance [1]: superior to the monohydrate
water lost by drying [2]: 0.20-0.30%
drying temperature at which crystal water is lost (anhydrous form results) ([3]; under atmospheric pressure): around 70 °C
drying temperature at which crystal water is lost (anhydrous form results) ([3]; under reduced pressure): around 60 °C

C[C@H]1COc2c(N3CCN(C)CC3)c(F)cc3c(=O)c(C(=O)O)cn1c23 [Levofloxacin, (S)-9-fluoro-3-methyl-10-(4-methyl-1-piperazinyl)-7-oxo-2,3-dihydro-7H-pyrido-[1,2,3-de][1,4]benzoxazine-6-carboxylic acid]
potency in inhibiting the multiplication of bacteria relative to its (+)-enantiomer ([4]; gram-positive and gram-negative bacteria, versus (+)-enantiomer): 8-128 times
activity relative to its racemate, ofloxacine ([4]; versus racemate): approximately 2 times
